In patent US11026916B2, “Treatment for non-alcoholic fatty liver diseases” (DSM IP ASSETS B.V., priority 2014, dated 2021):

How the values were obtained:
Type in all cases: cell-based, human
[1] = tested on: CCL4/MIP-1beta; assay: CCL4/MIP-1beta secretion by LPS-stimulated leukocytes (mononuclear cells), multiplex cytokine kit; conditions: for CCL4/MIP-1 b reduction (in words): pre-incubating cells prior to the stimulation with LPS
Protocol: (§1) Leukocytes are obtained from healthy donors. Mononuclear cells (MNC) are purified by Ficoll-Isopaque gradient centrifugation. Cells (at 3-8×10^6 cells/mL) are cultured in phenol-red free RPMI 1640, supplemented with 0.25% FBS, 0.1 mM NEAA, 50 U/mL penicillin, 50 μg/mL streptomycin and 5×10^-5 M 2-mercaptoethanol. Cells are stimulated with LPS (100 ng/mL) and IFN-γ (20 U/mL) for 2-24 h. Multiparametric kits for determination of cytokines and chemokines are purchased from BIO-RAD Laboratories (Hercules, Calif.) and used in the LiquiChip Workstation IS 200 (Qiagen, Hilden, Germany). The data are evaluated with the LiquiChip Analyser software (Qiagen).
(§2) The algorithm developed by Chou and Tatalay is used to calculate synergistic effects (Chou, T-C. Et Tatalay, P. A simple Biol. Chem. 252, 6438-6442, 1977; Chou, T-C. Et Tatalay, P. Analysis of combined drug effects—A new look at a very old problem. Trends in Biological Sciences. November 1983, p 450-454, 1983). Interactions are quantified by the Combination Index (CI). Briefly, the % of inhibition of the concentration of each single substance alone or the mixture of both are determined. The affected fraction (fa) (values between 0 and 1) and unaffected fraction (fu) (1−fa), respectively, is calculated. For median-effect plots, log (fa/fu) is plotted against log (D), where D represents the concentration of each single compound alone or the mixture of both. Using CalcuSyn software (Biosoft, Ferguson, Mo.), which is based upon the method by Chou Et Tatalay, a CI is computed for every fraction affected: a CI<1 reflects synergistic inhibition of the respective inflammatory parameter; if CI=1 the substances have additive interactions; when CI>1 the interaction of substances reflects antagonism. It has also been observed that substances can have synergistic or antagonistic interactions at given concentrations or ratios, respectively (see e.g. Pappa et al. Quantitative combination effects between sulforaphane and 3,3′-[…] diindolylmethane on proliferation of human colon cancer cells in vitro. Carcinogenesis 28, 1471-77, 2007).
(§3) Cells are stimulated with LPS, an pathogen-derived component that induces inflammatory response, which is reflected in the expression of inflammatory genes and the secretion of cytokines, interleukins and chemokines (Table 1). LPS induces a massive increase of the secretion of inflammatory mediators such as TNF-alpha. Concomitantly, inflammatory mediators are secreted. These parameters are modulated by pre-incubating cells with α-tocopherol or ω-3 PUFA prior to the stimulation with LPS. For instance, the pro-inflammatory cytokine […] is reduced by 29% and 64%, respectively (Table 1a). […] Thus, the substances reduces the extent of the inflammatory stress in cells that respond to inflammatory stimuli.

[2] = tested on: TNF-alpha; assay: TNF-alpha secretion by LPS-stimulated leukocytes (mononuclear cells), multiplex cytokine kit; conditions: for % reduction of TNF-alpha: pre-incubating cells prior to the stimulation with LPS, concentration not stated in the sentence (Table 1a)
Protocol: as §1, §2, §3

[3] = tested on: IL-1beta; assay: IL-1beta secretion by LPS-stimulated leukocytes (mononuclear cells), multiplex cytokine kit; conditions: for IL-1beta reduction (in words): pre-incubating cells prior to the stimulation with LPS
Protocol: as §1, with “(Qiagen). […]” for “(Qiagen).”
as §3

SMILES | CCL4/MIP-1 b reduction (in words) [1] | % inhibition (vs LPS) of CCL4 ([1]; single substance 10 μM + LPS) [%] | CCL4 pg/mL ± SD ([1]; single substance 10 μM + LPS) [pg/mL] | % inhibition (vs LPS) of CCL4 ([1]; single substance 50 μM + LPS) [%] | CCL4 pg/mL ± SD ([1]; single substance 50 μM + LPS) [pg/mL] | % reduction of TNF-alpha [2] [%] | % inhibition (vs LPS) of TNF-alpha ([2]; single substance 10 μM + LPS) [%] | TNF-alpha pg/mL ± SD ([2]; single substance 10 μM + LPS) [pg/mL] | % inhibition (vs LPS) of TNF-alpha ([2]; single substance 50 μM + LPS) [%] | TNF-alpha pg/mL ± SD ([2]; single substance 50 μM + LPS) [pg/mL] | IL-1beta reduction (in words) [3] | % inhibition (vs LPS) of IL-1beta ([3]; single substance 10 μM + LPS) [%] | IL-1beta pg/mL ± SD ([3]; single substance 10 μM + LPS) [pg/mL] | % inhibition (vs LPS) of IL-1beta ([3]; single substance 50 μM + LPS) [%] | IL-1beta pg/mL ± SD ([3]; single substance 50 μM + LPS) [pg/mL] | other results
Cc1c(C)c2c(c(C)c1O)CC[C@@](C)(CCC[C@H](C)CCC[C@H](C)CCCC(C)C)O2 [AT, α-tocopherol] | significantly reduced | 7 | 91400 ± 5657 | 15 | 83900 ± 3111 | 29 | −4 | 5505 ± 177 | 29 | 3755 ± 21 | significantly reduced | −7 | 6770 ± 438 | 9 | 5735 ± 134 | % inhibition (vs LPS) of CCL4 ([1]; single substance 200 μM + LPS): 11%; CCL4 pg/mL ± SD ([1]; single substance 200 μM + LPS): 87950 ± 3165 pg/mL; % inhibition (vs LPS) of TNF-alpha ([2]; single substance 200 μM + LPS): 27%; TNF-alpha pg/mL ± SD ([2]; single substance 200 μM + LPS): 3870 ± 14 pg/mL; % inhibition (vs LPS) of IL-1beta ([3]; single substance 200 μM + LPS): 14%; IL-1beta pg/mL ± SD ([3]; single substance 200 μM + LPS): 5430 ± 113 pg/mL
CC/C=C\C/C=C\C/C=C\C/C=C\C/C=C\C/C=C\CCC(=O)O [DHA, (all-Z)-4,7,10,13,16,19-docosahexaenoic acid] | significantly reduced | 32 | 79995 ± 3465 | 62 | 37600 ± 778 | 64 | 60 | 3190 ± 14 | 59 | 3105 ± 163 | significantly reduced | 14 | 5405 ± 742 | 77 | 1440 ± 71 | % inhibition (vs LPS) of CCL4 ([1]; single substance 20 μM + LPS): 62%; CCL4 pg/mL ± SD ([1]; single substance 20 μM + LPS): 67000 ± 7523 pg/mL; % inhibition (vs LPS) of TNF-alpha ([2]; single substance 20 μM + LPS): 64%; TNF-alpha pg/mL ± SD ([2]; single substance 20 μM + LPS): 3400 ± 523 pg/mL; % inhibition (vs LPS) of IL-1beta ([3]; single substance 20 μM + LPS): 23%; IL-1beta pg/mL ± SD ([3]; single substance 20 μM + LPS): 4865 ± 1633 pg/mL
